pIC50: −log10 of the molar value.

The experiment has as its target T1, Mineralocorticoid receptor (Homo sapiens, UniProt P08235).
T1 sequence (P08235 whole entry): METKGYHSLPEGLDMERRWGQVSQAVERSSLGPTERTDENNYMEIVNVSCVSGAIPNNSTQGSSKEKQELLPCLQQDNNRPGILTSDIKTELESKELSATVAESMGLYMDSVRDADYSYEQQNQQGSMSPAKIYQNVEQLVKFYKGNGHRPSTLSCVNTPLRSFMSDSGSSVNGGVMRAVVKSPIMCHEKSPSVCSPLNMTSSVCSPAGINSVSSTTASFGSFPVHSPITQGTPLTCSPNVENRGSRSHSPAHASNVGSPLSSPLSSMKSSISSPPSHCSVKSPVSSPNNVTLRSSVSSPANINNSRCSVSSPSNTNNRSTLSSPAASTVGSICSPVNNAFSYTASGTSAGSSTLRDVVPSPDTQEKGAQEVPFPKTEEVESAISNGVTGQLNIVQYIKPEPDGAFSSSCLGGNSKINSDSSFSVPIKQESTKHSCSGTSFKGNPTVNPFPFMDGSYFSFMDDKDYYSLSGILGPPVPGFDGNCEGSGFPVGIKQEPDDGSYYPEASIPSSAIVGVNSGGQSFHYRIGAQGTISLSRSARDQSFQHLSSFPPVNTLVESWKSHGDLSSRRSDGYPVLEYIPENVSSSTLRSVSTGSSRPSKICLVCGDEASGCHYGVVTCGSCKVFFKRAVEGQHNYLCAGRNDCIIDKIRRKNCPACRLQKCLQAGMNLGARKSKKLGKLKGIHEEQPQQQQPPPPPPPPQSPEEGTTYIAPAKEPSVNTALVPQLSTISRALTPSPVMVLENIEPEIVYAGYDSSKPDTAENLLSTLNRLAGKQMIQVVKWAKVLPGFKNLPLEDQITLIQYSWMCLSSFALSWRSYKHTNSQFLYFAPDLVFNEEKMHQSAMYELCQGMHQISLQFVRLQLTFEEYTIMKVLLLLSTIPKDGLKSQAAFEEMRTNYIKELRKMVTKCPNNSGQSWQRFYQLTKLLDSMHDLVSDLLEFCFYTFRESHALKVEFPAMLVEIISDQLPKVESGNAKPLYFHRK
The experiment in a line: Antagonist activity at Gal4-fused human MR LBD (671 to 984 residues) expressed in African Green Monkey CV-1 cells assessed as inhibition of aldosterone-induced transactivation activity after 20 hrs by luciferase reporter gene assay. Background: Reporter assays use an easily measured gene product as a stand-in for the process of interest.

Consider `Cc1c(C(=O)Nc2ccc(S(C)(=O)=O)cc2)cc(CCO)n1-c1ccc(Cl)cc1C(F)(F)F`, for which the pIC50 was 8.43.

As a reminder, the pIC50 is the IC50 on a negative log10 scale, so that one unit is a factor of ten.

The values are drawn from BindingDB's records for doi:10.1021/acs.jmedchem.6b01065 (2017).
